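Cultured in 96-well plates, cells were exposed to test compound for 48 hours across five concentrations. The concentration for 50% growth inhibition is given as GI50.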 Activity calls are given as the source filed them. Rule as the data show it: active = GI50 up to about 1.1 µM and inactive = higher.
Assays:
Test in all cases: growth of human tumour cells (NCI), 48 h
[1] = tested on: ACHN
[2] = tested on: K562
[3] = tested on: COLO 205
[4] = tested on: NCI-H460
[5] = tested on: SR
[6] = tested on: RPMI-8226
[7] = tested on: SNB-19
[8] = tested on: M14
[9] = tested on: SK-MEL-2
[10] = tested on: OVCAR-4
[11] = tested on: SK-OV-3
[12] = tested on: 786-0
[13] = tested on: NCI-H23
[14] = tested on: MOLT-4
[15] = tested on: OVCAR-3
[16] = tested on: MCF7
[17] = tested on: NCI-H522
[18] = tested on: UACC-62
[19] = tested on: LOX IMVI
[20] = tested on: Malme-3M
[21] = tested on: HCT-116
[22] = tested on: NCI-H226
[23] = tested on: TK-10
[24] = tested on: CCRF-CEM
[25] = tested on: OVCAR-8
[26] = tested on: CAKI-1
[27] = tested on: MDA-N
[28] = tested on: MDA-MB-435
[29] = tested on: U-251
[30] = tested on: SNB-75
[31] = tested on: SW-620
[32] = tested on: HCT-15
[33] = tested on: Hs-578T
[34] = tested on: HT-29
[35] = tested on: EKVX
[36] = tested on: HOP-92
[37] = tested on: SN12C
[38] = tested on: IGROV-1
[39] = tested on: HOP-62
[40] = tested on: PC-3
[41] = tested on: RXF 393
[42] = tested on: T47D
[43] = tested on: SK-MEL-5
[44] = tested on: SF-539
[45] = tested on: DU-145
[46] = tested on: SF-268
[47] = tested on: NCI/ADR-RES
[48] = tested on: OVCAR-5
[49] = tested on: BT-549
[50] = tested on: UO-31
[51] = tested on: A498
[52] = tested on: HL-60
[53] = tested on: MDA-MB-231
[54] = tested on: SF-295
[55] = tested on: SK-MEL-28
[56] = tested on: KM12
[57] = tested on: A549
[58] = tested on: UACC-257
[59] = tested on: HCC 2998

## C(=N\c1cnc2ccccc2c1)/c1ccc2ccccc2n1
[1]
  GI50: > 100 µM (inactive)
[2]
  GI50: 52 µM (inactive)
[3]
  GI50: > 100 µM (inactive)
[4]
  GI50: > 100 µM (inactive)
[5]
  GI50: 24 µM (inactive)
[6]
  GI50: 29.2 µM (inactive)
[7]
  GI50: > 100 µM (inactive)
[8]
  GI50: > 100 µM (inactive)
[9]
  GI50: > 100 µM (inactive)
[10]
  GI50: > 100 µM (inactive)
[11]
  GI50: > 100 µM (inactive)
[12]
  GI50: > 100 µM (inactive)
[13]
  GI50: > 100 µM (inactive)
[14]
  GI50: 50 µM (inactive)
[15]
  GI50: 27.7 µM (inactive)
[16]
  GI50: 43 µM (inactive)
[17]
  GI50: > 100 µM (inactive)
[18]
  GI50: > 100 µM (inactive)
[19]
  GI50: 72.9 µM (inactive)
[20]
  GI50: > 100 µM (inactive)
[21]
  GI50: 35.6 µM (inactive)
[22]
  GI50: > 100 µM (inactive)
[23]
  GI50: > 100 µM (inactive)
[24]
  GI50: 23.8 µM (inactive)
[25]
  GI50: > 100 µM (inactive)
[26]
  GI50: > 100 µM (inactive)
[27]
  GI50: > 100 µM (inactive)
[28]
  GI50: > 100 µM (inactive)
[29]
  GI50: 67.5 µM (inactive)
[30]
  GI50: > 100 µM (inactive)
[31]
  GI50: 64.1 µM (inactive)
[32]
  GI50: 55.6 µM
[33]
  GI50: > 100 µM (inactive)
[34]
  GI50: > 100 µM (inactive)
[35]
  GI50: > 100 µM (inactive)
[36]
  GI50: > 100 µM (inactive)
[37]
  GI50: > 100 µM (inactive)
[38]
  GI50: > 100 µM (inactive)
[39]
  GI50: > 100 µM (inactive)
[40]
  GI50: > 100 µM (inactive)
[41]
  GI50: > 100 µM (inactive)
[42]
  GI50: > 100 µM (inactive)
[43]
  GI50: > 100 µM (inactive)
[44]
  GI50: > 100 µM (inactive)
[45]
  GI50: > 100 µM (inactive)
[46]
  GI50: > 100 µM (inactive)
[47]
  GI50: > 100 µM (inactive)
[48]
  GI50: > 100 µM (inactive)
[49]
  GI50: > 100 µM (inactive)
[50]
  GI50: > 100 µM (inactive)
[51]
  GI50: > 100 µM (inactive)
[52]
  GI50: 53.3 µM (inactive)
[53]
  GI50: > 100 µM (inactive)
[54]
  GI50: > 100 µM (inactive)
[55]
  GI50: > 100 µM (inactive)
[56]
  GI50: > 100 µM (inactive)
[57]
  GI50: > 100 µM (inactive)
[58]
  GI50: > 100 µM (inactive)

## O=C1CCc2cc3c(cc21)CC1(Cc2cc4c(cc2C1)CCCC4)C3
[1]
  GI50: > 100 µM (inactive)
[2]
  GI50: 23.6 µM (inactive)
[3]
  GI50: 33 µM (inactive)
[4]
  GI50: 41.4 µM (inactive)
[5]
  GI50: 5.52 µM (inactive)
[6]
  GI50: > 100 µM (inactive)
[7]
  GI50: 45.1 µM (inactive)
[8]
  GI50: 30.3 µM (inactive)
[9]
  GI50: > 100 µM (inactive)
[10]
  GI50: 29 µM (inactive)
[11]
  GI50: 79.4 µM (inactive)
[13]
  GI50: > 100 µM (inactive)
[14]
  GI50: > 100 µM (inactive)
[15]
  GI50: 53.6 µM (inactive)
[16]
  GI50: 44.5 µM (inactive)
[17]
  GI50: 26 µM (inactive)
[18]
  GI50: 39.9 µM (inactive)
[19]
  GI50: 58.5 µM (inactive)
[20]
  GI50: 90.6 µM (inactive)
[21]
  GI50: 37.2 µM (inactive)
[23]
  GI50: > 100 µM (inactive)
[24]
  GI50: 72.3 µM (inactive)
[25]
  GI50: > 100 µM (inactive)
[27]
  GI50: 4.82 µM (inactive)
[28]
  GI50: 4.68 µM (inactive)
[29]
  GI50: 45.9 µM (inactive)
[30]
  GI50: 14.6 µM (inactive)
[31]
  GI50: 29.1 µM (inactive)
[59]
  GI50: 69.8 µM (inactive)
[32]
  GI50: 69 µM
[33]
  GI50: 30.5 µM (inactive)
[34]
  GI50: 34.8 µM (inactive)
[35]
  GI50: > 100 µM (inactive)
[36]
  GI50: 0.0489 µM (active)
[37]
  GI50: > 100 µM (inactive)
[38]
  GI50: 97.5 µM (inactive)
[39]
  GI50: 83.2 µM (inactive)
[40]
  GI50: > 100 µM (inactive)
[41]
  GI50: 16 µM (inactive)
[42]
  GI50: 32.1 µM (inactive)
[43]
  GI50: 24.6 µM (inactive)
[44]
  GI50: > 100 µM (inactive)
[45]
  GI50: > 100 µM (inactive)
[46]
  GI50: > 100 µM (inactive)
[47]
  GI50: > 100 µM (inactive)
[48]
  GI50: > 100 µM (inactive)
[49]
  GI50: > 100 µM (inactive)
[50]
  GI50: > 100 µM (inactive)
[51]
  GI50: 61.5 µM (inactive)
[52]
  GI50: 27.9 µM (inactive)
[53]
  GI50: 19.4 µM (inactive)
[54]
  GI50: 33.9 µM (inactive)
[55]
  GI50: > 100 µM (inactive)
[56]
  GI50: 51.2 µM (inactive)
[57]
  GI50: 88.9 µM (inactive)
[58]
  GI50: 35.6 µM (inactive)

## C=CCN1C(=O)CC2[C@@H]3CCc4cc(O)ccc4C3CC[C@]2(C)C1=O (stereo partly specified)
[1]
  GI50: > 10 µM (inactive)
[2]
  GI50: > 10 µM (inactive)
[3]
  GI50: > 10 µM (inactive)
[4]
  GI50: > 10 µM (inactive)
[5]
  GI50: > 10 µM (inactive)
[6]
  GI50: > 10 µM (inactive)
[7]
  GI50: > 10 µM (inactive)
[8]
  GI50: > 10 µM (inactive)
[9]
  GI50: > 10 µM (inactive)
[10]
  GI50: > 10 µM (inactive)
[11]
  GI50: > 10 µM (inactive)
[12]
  GI50: > 10 µM (inactive)
[13]
  GI50: > 10 µM (inactive)
[14]
  GI50: > 10 µM (inactive)
[15]
  GI50: > 10 µM (inactive)
[16]
  GI50: > 10 µM (inactive)
[18]
  GI50: > 10 µM (inactive)
[19]
  GI50: > 10 µM (inactive)
[20]
  GI50: > 10 µM (inactive)
[21]
  GI50: > 10 µM (inactive)
[22]
  GI50: > 10 µM (inactive)
[23]
  GI50: > 10 µM (inactive)
[24]
  GI50: > 10 µM (inactive)
[25]
  GI50: > 10 µM (inactive)
[26]
  GI50: > 10 µM (inactive)
[27]
  GI50: > 10 µM (inactive)
[28]
  GI50: > 10 µM (inactive)
[29]
  GI50: > 10 µM (inactive)
[31]
  GI50: > 10 µM (inactive)
[59]
  GI50: > 10 µM (inactive)
[32]
  GI50: > 10 µM
[33]
  GI50: > 10 µM (inactive)
[34]
  GI50: > 10 µM (inactive)
[35]
  GI50: > 10 µM (inactive)
[36]
  GI50: > 10 µM (inactive)
[37]
  GI50: > 10 µM (inactive)
[38]
  GI50: > 10 µM (inactive)
[39]
  GI50: > 10 µM (inactive)
[40]
  GI50: > 10 µM (inactive)
[41]
  GI50: > 10 µM (inactive)
[42]
  GI50: > 10 µM (inactive)
[43]
  GI50: > 10 µM (inactive)
[44]
  GI50: > 10 µM (inactive)
[45]
  GI50: > 10 µM (inactive)
[46]
  GI50: > 10 µM (inactive)
[47]
  GI50: > 10 µM (inactive)
[48]
  GI50: > 10 µM (inactive)
[49]
  GI50: > 10 µM (inactive)
[50]
  GI50: > 10 µM (inactive)
[51]
  GI50: > 10 µM (inactive)
[52]
  GI50: > 10 µM (inactive)
[53]
  GI50: > 10 µM (inactive)
[54]
  GI50: > 10 µM (inactive)
[55]
  GI50: > 10 µM (inactive)
[56]
  GI50: > 10 µM (inactive)
[57]
  GI50: > 10 µM (inactive)
[58]
  GI50: > 10 µM (inactive)

— ChEMBL document CHEMBL1201862, “PubChem BioAssay data set” (2004)
